Measurements: publication PMC5238559, “Biomimetic synthesis and HPLC–ECD analysis of the isomers of dracocephins A and B” (Beilstein Journal of Organic Chemistry, 2016)
≈ marks a conversion by molar mass, not a printed value. Where two headings read alike, the source gives them in different places.

Legend:
[1] = DPPH radical scavenging test; conditions: microplate format
Method: Antioxidant activity: The radical scavenging capacity of dracocephins A and B were
tested in the microplate format of the 2,2-diphenyl-1-picrylhydrazyl (DPPH) assay.
Naringenin and quercetin were obtained from PhytoLab (Vestenbergsgreuth,
Germany), and used as controls. […]

[2] = pKa determination by aqueous titrations; format: physicochemical; conditions: aqueous solution, phenolic hydroxy group
Method: (§1) n-octanol. From the n-octanol containing titrations the poKa (the apparent ionization constant in the presence of n-octanol) and then logP values were estimated and refined by a weighted non-linear least-squares procedure, where the aqueous pKa values (taken from aqueous titrations) were used as unrefined contributions. For each compound a minimum of three to six titrations at different phase volume ratios were measured, and the respective average logP values were calculated. logD values were also calculated by logP and pKa values using the Henderson– Hasselbalch equation. The relevant relationships between logP, pKa, and poKa, for mono- and multiprotic substances, including cases of ion-pair formation, have been described in detail earlier. […]

[3] = logP determination by titrations in the presence of n-octanol; logD calculated from logP and pKa; format: physicochemical; conditions: n-octanol/water; for logP: lipophilicity of neutral species; for logD: calculated from logP and pKa by Henderson–Hasselbalch equation
Method: as §1

in vitro = in vitro ADME; conditions: pig, PAMPA, pH 7.4
Method: Physicochemical characterization of dracocephins A and B was also carried out. […] Similarly to this lipophilicity trend, the TPSA value of (±)-naringenin is lower than dracocephins A and B, however, there is no difference between the calculated TPSA values of 2a–d and 3a–d. […] Among these proton-dissociation constants, the lowest acidic pKa values are predominant in physiological environment, which is also indicated by the difference of log D values between pH 7.4 and pH 6.5. The blood–brain barrier (BBB) specific penetration of dracocephins isomers has also been studied by the PAMPA (parallel artificial membrane permeability assay)-BBB model system, which indicates passive diffusion of test compounds across the brain capillary endothelium. […]
n-octanol. […] For each compound a minimum of three to six titrations at different phase volume ratios were measured, and the respective average logP values were calculated. logD values were also calculated by logP and pKa values using the Henderson– Hasselbalch equation. […]
(§2) for 4 h. After the incubation, PAMPA sandwich plates are separated and compound concentrations in donor and acceptor solutions are determined by HPLC-DAD. […]
(§3) Cytotoxicity on SH-SY5Y cells: Cytotoxicity on SH-SY5Y cells was measured in an analogous manner as described in the literature. […]

[4] = Cytotoxicity on SH-SY5Y cells (MTT); format: cell-based; conditions: human, undifferentiated SH-SY5Y neuroblastoma cells
Method: for 4 h. After the incubation, PAMPA sandwich plates are separated and compound concentrations in donor and acceptor solutions are determined by HPLC-DAD.
SH-SY5Y neuroblastoma was cultured in EMEM media supplemented with non-essential amino acids, 1 mM Na pyruvate and 10% inactivated fetal bovine serum, nystatin, 2 mM L-glutamine, 100 U penicillin and 0.1 mg streptomycin, purchased from Sigma. Cells were cultured at 37 °C and 5% CO2. […]
as §3
(§4) were read after o/n incubation. Fifty percent inhibitory concentrations (IC50) were calculated using nonlinear regression curve fitting of log (inhibitor) versus normalized response and variable slope with a least squares (ordinary) fit of GraphPad Prism 5 software, for three independent samples.
Evaluation of compounds effect on rhodamine 123 accumulation: Rd123 concentration inside L5178PAR and L5178MDR cells was determined by flow cytometry.
Briefly, 2 × 10^6 cells/mL were treated with 2 and 20 μM of each compound and incubated for 10 min at rt. […] The fluorescence of the samples was measured by flow cytometry (Becton Dickinson FACScan, BD, U.S.). […]
Fluorescence activity ratio measures the capacity of inhibition (accumulation of Rd123) and it is equal to the ratio between the FL-1 values of the L5178MDR cells […]

P-glycoprotein (P-gp) = experiment: Rhodamine 123 accumulation in P-gp transfected L5178MDR cells; format: cell-based; conditions: 2 and 20 μM of compound
Method: In connection with the BBB penetration studies, 2a–d and 3a–d were tested for their potential towards CNS cytotoxic activity on undifferentiated SH-SY5Y neuroblastoma cells. […] On the other hand, the possibility for neuroprotective activity could not be tested with the applied experimental setup. As an additional bioassay on compounds 2a–d and 3a–d, their potential to interfere with the function of P-glycoprotein (P-gp) was tested. By transporting a wide variety of compounds from the CNS back into the blood stream, P-gp is an important element of the BBB [16]. […]
as §2, §3, §4
Evaluation of compounds effect on rhodamine 123 accumulation: Rd123 concentration inside L5178PAR and L5178MDR cells was determined by flow cytometry. […]

[5] = first value in cell, read-out: pKa (first, lowest acidic)
[6] = second value in cell, read-out: pKa (second) (converted)
[7] = third value in cell, read-out: pKa (third) (converted)

IC50 DPPH radical scavenging [1] [µg/mL] | pKa [2, 5] | pKa [2, 6] | pKa [2, 7] | logP [3] | logD ([3]; pH 6.5, read-out: log D6.5) | logD ([3]; pH 7.4, read-out: log D7.4) | Papp at 4 h, 100 µM (in vitro) [×10⁻⁶ cm/s] | Compound | IC50 at 48 h [4] [µM] | P-gp inhibition (rhodamine 123 accumulation) (P-glycoprotein (P-gp))
9.4 ± 0.6 (≈ 31.1 µM) | – | – | – | – | – | – | – | O=c1c(O)c(-c2ccc(O)c(O)c2)oc2cc(O)cc(O)c12 [quercetin, reference compound] | – | –
> 200 | 6.69 ± 0.01 | 9.47 | 12.3 | 2.52 ± 0.02 | 2.31 | 1.74 | 1.1 ± 0.1 | O=C1CCC(c2c(O)cc3c(c2O)C(=O)CC(c2ccc(O)cc2)O3)N1 (stereo not drawn) [2a–d, 6-(2”-pyrrolidinone-5”-yl)naringenin] | > 150 | none of the synthesized compounds inhibits this transporter
> 200 | 6.54 | 9.54 | 12 | 2.39 ± 0.02 | 2.12 | 1.51 | – | O=C1CCC(c2c(O)cc(O)c3c2OC(c2ccc(O)cc2)CC3=O)N1 (stereo not drawn) [3a–d, 8-(2”-pyrrolidinone-5”-yl)naringenin] | > 150 | none of the synthesized compounds inhibits this transporter

Compound | IC50 DPPH radical scavenging [1] [µg/mL] | pKa [2, 5] | pKa [2, 6] | pKa [2, 7] | logP [3] | logD ([3]; pH 6.5, read-out: log D6.5) | logD ([3]; pH 7.4, read-out: log D7.4) | Papp at 4 h, 100 µM (in vitro) [×10⁻⁶ cm/s] | IC50 at 48 h [4] [µM] | P-gp inhibition (rhodamine 123 accumulation) (P-glycoprotein (P-gp))
naringenin [(±)-1, reference compound] | > 200 | – | – | – | – | – | – | – | – | –
